Data as given in patent US20240166649A1, “DIHYDROPYRIMIDINE COMPOUND, PREPARATION METHOD THEREFOR AND APPLICATION THEREOF” (Shanghai Visonpharma Co., Ltd., priority 2021, published 2024).

Experiments:
[1] = Cytotoxicity assay (CellTiter Glo); assay type: cell-based; conditions: human; HepG2.2.15 cells, five days post treatment
Procedure: The Invention Determined Cytotoxicity of the Compounds Against HepG2.2.15 Cells (Table 2)
HepG2.2.15 cells were seeded into 96-well plates (8000 cells per well) and cell viability was measured by the addition of 60 μL of CellTiter Glo reagent (Promega) five days post treatment with the compounds. Cell plates with CellTiter Glo added were shaken on a plate shaker for 20 min and then the chemiluminescence signal was stabilized at room temperature for 10 min. Chemiluminescence values were read using a microplate reader (Bio-TeK SYNERGY NEO2).
The concentration corresponding to 50% cytotoxicity (CC50) was fitted by graphpad prism software. The cytotoxicity was calculated by the formula: % Cytotoxicity=100−(chemiluminescence value of sample Well −average chemiluminescence value of blank medium column)/(average chemiluminescence value of DMSO column −average chemiluminescence value of blank medium column)*100

[2] = system: HBV (hepatitis B virus) in HepG2.2.15 cells; assay: Cell-based anti-viral activity assay (HBV DNA in supernatant by quantitative PCR); conditions: 120 h, anti-HBV activity, HepG2.2.15 cells, 5 days, read-out: EC50 (HepG2.2.15)
Procedure: Cell-Based Anti-Viral Activity Assay
The Invention determined the anti-HBV (hepatitis B virus) activity of compounds in HepG2.2.15 cells (Table 1).
HepG2.2.15 is a cell line stably transfected with the HBV genome. HepG2.2.15 cells were cultured in DMEM (1X) with 10% fetal bovine serum (Corning), 100 U penicillin (Gibico), 100 μg/mL streptomycin (Gibico), 250 μg/mL geneticin (Gibco) and GlutaMAXTM-I medium (Invitrogen).
HepG2.2.15 cells were seeded into 96-well plates (4×10^4 cells in 100 μL of medium per well) and incubated overnight at 37° C. The test compounds were weighed and prepared as 10 mM stock solution with DMSO. The stock solutions of the compounds were diluted by a gradient of 3.16 times with DMSO, and then diluted by a gradient of 3.16 times with medium for 50 times. Finally, the diluted compound solutions were added to the cell plate with a total volume of 200 μL and the final DMSO concentration was 1%. The 96-well culture plates loaded with drugs were transferred to an incubator at 37° C. for 5 days. […] nucleic acid releasing agent was added to 96-well PCR reaction plate, and 2 μL of cell supernatant or HBV quantitative standards were added to the corresponding Wells. Centrifuged the plates to fully mix, and incubated at room temperature for 10 min to fully release nucleic acid. Quantified HBV DNA content by fluorescent quantitative PCR (CFX Connect Real-Time System) using Sanxiang Bio hepatitis B virus fluorescent quantitative diagnostic kit.
The standard curve was established by taking the logarithm of the copy number (IU/ml) of the HBV standard sample (log 10) as the abscordinate and the corresponding CT value as the ordinate. The copy number of the sample was calculated according to the corresponding CT of the positive sample and the standard curve, and the percentage of inhibition rate was calculated as follows: • % Inhibition=100-100*(sample HBV copy number−high concentration reference compound column HBV copy number)/DMSO column HBV copy number−high concentration reference compound column HBV copy number).

Compound	CC50 at 5 days [1]	EC50 [2]
CCOC(=O)C1=C(CN2CCN3C(=O)N(C45CC(COC)(C4)C5)C[C@@H]3[C@@H]2C(=O)O)NC(c2nccs2)=N[C@H]1c1cccc(F)c1C [Compound 48, (8R,8aR)-7-(((S)-5-(Ethoxycarbonyl)-6-(3-Fluoro-2-Methylphenyl)-2-(Thiazol-2-Yl)-3,6-Dihydropyrimidin-4-Yl)Methyl)-2-(3-(Methoxymethyl)Bicyclo[1.1.1]Pentan-1-Yl)-3-Oxooctahydroimidazo[1,5-a]Pyrazine-8-Carboxylic Acid]	> 50000 nM	15 nM
CCOC(=O)C1=C(CN2CCN3C(=O)N(C45CC(C(=O)O)(C4)C5)C[C@@H]3C2)NC(c2nccs2)=N[C@H]1c1cccc(F)c1C [Compound 1, 3-((S)-7-(((S)-5-(Ethoxycarbonyl)-6-(3-Fluoro-2-Methylphenyl)-2-(Thiazol-2-Yl)-3,6-Dihydropyrimidin-4-Yl)Methyl)-3-Oxohexahydroimidazo[1,5-a]Pyrazin-2(3H)-Yl)Bicyclo[1.1.1]Pentane-1-Carboxylic Acid]	> 50000 nM	33 nM
CCOC(=O)C1=C(CN2CCN3C(=O)N(C45CCC(C(=O)O)(CC4)C5)C[C@@H]3C2)NC(c2nccs2)=N[C@H]1c1cccc(F)c1C [Compound 59, 4-((S)-7-(((S)-5-(Ethoxycarbonyl)-6-(3-Fluoro-2-Methylphenyl)-2-(Thiazol-2-Yl)-3,6-Dihydropyrimidin-4-Yl)Methyl)-3-Oxohexahydroimidazo[1,5-a]Pyrazin-2(3H)-Yl)Bicyclo[2.2.1]Heptane-1-Carboxylic Acid]	> 50000 nM	12 nM
CCOC(=O)C1=C(CN2CCN3C(=O)N(C45CC(N(C)CC(=O)O)(C4)C5)C[C@@H]3C2)NC(c2nccs2)=N[C@H]1c1cccc(F)c1C [Compound 49, N-(3-((S)-7-(((S)-5-(Ethoxycarbonyl)-6-(3-Fluoro-2-Methylphenyl)-2-(Thiazol-2-Yl)-3,6-Dihydropyrimidin-4-Yl)Methyl)-3-Oxohexahydroimidazo[1,5-a]Pyrazin-2(3H)-Yl)Bicyclo[1.1.1]Pentan-1-Yl)-N-Methylglycine]	> 50000 nM	17 nM
CCOC(=O)C1=C(CN2CCN3C(=O)N(C45CC(NS(C)(=O)=O)(C4)C5)C[C@@H]3[C@H]2C(=O)O)NC(c2nccs2)=N[C@H]1c1cccc(F)c1C [Compound 46, (8S,8aR)-7-(((S)-5-(Ethoxycarbonyl)-6-(3-Fluoro-2-Methylphenyl)-2-(Thiazol-2-Yl)-3,6-Dihydropyrimidin-4-Yl)Methyl)-2-(3-(Methylsulfonamido)Bicyclo[1.1.1]Pentan-1-Yl)-3-Oxooctahydroimidazo [1,5-a]Pyrazine-8-Carboxylic Acid]	> 50000 nM	61 nM
CCOC(=O)C1=C(CN2CCN3C(=O)N(CC45CC(C(=O)O)(C4)C5)C[C@@H]3C2)NC(c2nccs2)=N[C@H]1c1cccc(F)c1C [Compound 5, 3-(((S)-7-(((S)-5-(Ethoxycarbonyl)-6-(3-Fluoro-2-Methylphenyl)-2-(Thiazol-2-Yl)-3,6-Dihydropyrimidin-4-Yl)Methyl)-3-Oxohexahydroimidazo[1,5-a]Pyrazin-2(3H)-Yl)Methyl)Bicyclo[1.1.1]Pentane-1-Carboxylic Acid]	> 50000 nM	73 nM
CCOC(=O)C1=C(CN2CCN3C(=O)N(C45CC(CNS(C)(=O)=O)(C4)C5)C[C@@H]3C2)NC(c2nccs2)=N[C@H]1c1cccc(F)c1C [Compound 14, Ethyl (S)-4-(3-Fluoro-2-Methylphenyl)-6-(((S)-2-(3-(Methylsulfonamidomethyl)Bicyclo[1.1.1]Pentan-1-Yl)-3-Oxohexahydroimidazo[1,5-a]Pyrazin-7(1H)-Yl)Methyl)-2-(Thiazol-2-Yl)-1,4-Dihydropyrimidine-5-Carboxylate]	–	4 nM
CCOC(=O)C1=C(CN2CCN3C(=O)N(C45CC(NS(N)(=O)=O)(C4)C5)C[C@@H]3C2)NC(c2nccs2)=N[C@H]1c1cccc(F)c1C [Compound 21, Ethyl (S)-4-(3-Fluoro-2-Methylphenyl)-6-(((S)-3-Oxo-2-(3-(Sulfamoylamino)Bicyclo[1.1.1]Pentan-1-Yl)Hexahydroimidazo[1,5-a]Pyrazin-7(1H)-Yl)Methyl)-2-(Thiazol-2-Yl)-1,4-Dihydropyrimidine-5-Carboxylate]	–	15 nM
CCOC(=O)C1=C(CN2CCN3C(=O)N(C45CC(CC(C)(C)C(=O)O)(C4)C5)C[C@@H]3C2)NC(c2nccs2)=N[C@H]1c1ccc(F)cc1Cl [Compound 40]	–	12 nM
CCOC(=O)C1=C(CN2CCN3C(=O)N(C45CC(C(=O)N6CCCC6)(C4)C5)C[C@@H]3C2)NC(c2nccs2)=N[C@H]1c1cccc(F)c1C [Compound 6, Ethyl (S)-4-(3-Fluoro-2-Methylphenyl)-6-(((S)-3-Oxo-2-(3-(Pyrrolidine-1-Carbonyl)Bicyclo[1.1.1]Pentan-1-Yl)Hexahydroimidazo[1,5-a]Pyrazin-7(1H)-Yl)Methyl)-2-(Thiazol-2-Yl)-1,4-Dihydropyrimidine-5-Carboxylate]	–	8 nM
CCOC(=O)C1=C(CN2CCN3C(=O)N(C45CC(CC(=O)O)(C4)C5)C[C@@H]3[C@H]2COC)NC(c2nccs2)=N[C@H]1c1cccc(F)c1C [Compound 43, 2-(3-((8S,8aR)-7-(((S)-5-(Ethoxycarbonyl)-6-(3-Fluoro-2-Methylphenyl)-2-(Thiazol-2-Yl)-3,6-Dihydropyrimidin-4-Yl)Methyl)-8-(Methoxymethyl)-3-Oxohexahydroimidazo[1,5-a]Pyrazin-2(3H)-Yl)Bicyclo[1.1.1]Pentan-1-Yl)Acetic Acid]	–	197 nM
CCOC(=O)C1=C(CN2CCN3C(=O)N(C45CC(CO)(C4)C5)C[C@@H]3C2C(=O)OCC)NC(c2nccs2)=N[C@H]1c1cccc(F)c1C (stereo partly drawn) [Compound 31, Ethyl (8aR)-7-(((S)-5-(Ethoxycarbonyl)-6-(3-Fluoro-2-Methylphenyl)-2-(Thiazol-2-Yl)-3,6-Dihydropyrimidin-4-Yl)Methyl)-2-(3-(Hydroxymethyl)Bicyclo[1.1.1]Pentan-1-Yl)-3-Oxooctahydroimidazo[1,5-a]Pyrazine-8-Carboxylate]	–	25 nM
CCOC(=O)C1=C(CN2CCN3C(=O)N(C45CC(NS(C)(=O)=O)(C4)C5)C[C@@H]3C2)NC(c2nccs2)=N[C@H]1c1cccc(F)c1C [Compound 9, Ethyl (S)-4-(3-Fluoro-2-Methylphenyl)-6-(((S)-2-(3-(Methylsulfonamido)Bicyclo[1.1.1]Pentan-1-Yl)-3-Oxohexahydroimidazo[1,5-a]Pyrazin-7(1H)-Yl)Methyl)-2-(Thiazol-2-Yl)-1,4-Dihydropyrimidine-5-Carboxylate]	–	4 nM
CCOC(=O)C1=C(CN2CCN3C(=O)N(C45CC(CN6CCCC6=O)(C4)C5)C[C@@H]3C2)NC(c2nccs2)=N[C@H]1c1cccc(F)c1C [Compound 25, Ethyl (S)-4-(3-Fluoro-2-Methylphenyl)-6-(((S)-3-Oxo-2-(3-((2-Oxopyrrolidin-1-Yl)Methyl)Bicyclo[1.1.1]Pentan-1-Yl)Hexahydroimidazo[1,5-a]Pyrazin-7(1H)-Yl)Methyl)-2-(Thiazol-2-Yl)-1,4-Dihydropyrimidine-5-Carboxylate]	–	2 nM
CCOC(=O)C1=C(CN2CCN3C(=O)N(C45CC(N(C)C(C)=O)(C4)C5)C[C@@H]3C2)NC(c2nccs2)=N[C@H]1c1cccc(F)c1C [Compound 12, Ethyl (S)-4-(3-Fluoro-2-Methylphenyl)-6-(((S)-2-(3-(N-Methylacetamido)Bicyclo[1.1.1]Pentan-1-Yl)-3-Oxohexahydroimidazo[1,5-a]Pyrazin-7(1H)-Yl)Methyl)-2-(Thiazol-2-Yl)-1,4-Dihydropyrimidine-5-Carboxylate]	–	3 nM
